Assay results from patent publication US20130236445A1, “Bromelain proteinases (Bromelainases) as chemotherapeutic agents in treating and/or preventing various types of cancer in a mammal” (Garfield Medical Group, priority 2011, published 2013).

Legend:
tumor cell [1] = settings: in vitro; cited from earlier work
tumor cell [2] = settings: in vitro; cited from earlier work; remark: listed apart in the source
CD44 = settings: in vitro; cited from earlier work
tumor cells = settings: in vitro; cited from earlier work
TNFα, II-2 = settings: in vitro; cited from earlier work
[3] = examination of internal organs of bromelain-treated rabbits; parameters: species or system white rabbits; settings: rabbit, in vivo
Description: One half of each organ was frozen and the other half was fixed with 10% neutral buffered formalin for 24 hours. Then the fixed organs were washed […] stepwise dehydrated with 70%, 80%, 90%, 100% ethanol and then embedded in paraffin by using Shandon-Histocentre-2. The embedded organ blocks were sectioned in 4 µm thickness with a microtome (McBain, M 820, American Optical Co. USA) and stained with hematoxylin and eosin stain (H.E. stain). The stained specimens were made transparent with xylene, and mounted with permount on microslides.

[4] = rabbit, in vivo
Description: After 8 weeks of treatment, the rabbits were anesthetized with injections of ketamine 75 mg/kg in the femoral muscle and sacrificed. Blood samples were collected from the heart of each rabbit to determine the blood analysis consisting of: complete blood count (CBC), Chemistry-7 and 24, (including Liver and renal function tests), lipid profiles (including Total cholesterol, HDL, LDL, VLDL, and triglycerides), coagulation factors consisting of; prothrombin time (PT), partial thromboplastin time (PPT), and immune-globulin-E.
All laboratory blood analysis were performed on rabbits of all 7 groups, The results were tested using student t-test and Microsoft Excel-7 programs.

Row | Substance | tumor cell proliferation, effect (tumor cell [1]) | tumor cell invasion through extracellular matrix, effect (tumor cell [2]) | CD44 expression on metastatic cells, effect (CD44) | immunocytotoxicity of lymphocytes against tumor cells, effect (tumor cells) | secretion of TNFα, II-2, effect (TNFα, II-2) | internal organs, microscopic examination (H.E. stain) [3] | GGTP [4] | HDL [4] | Hb [4] | SGOT [4] | SGPT [4] | TC (total cholesterol) [4] | TRG (triglycerides) [4] | WBC [4] | laboratory blood tests, differences between groups [4]
1 | Ananain [Bromelain F9] | ↓ | = | ↓ | ↑ | ↑ |  |  |  |  |  |  |  |  |  | 
2 | Stem bromelain [Bromelain F4] |  | = |  |  |  |  |  |  |  |  |  |  |  |  | 
3 | Bromelain |  |  |  |  |  | no pathological abnormalities or lesions | 7+—1 | 43.6+—16.5 mg/ | 11.9+—1.9 gm/dl | 110.8+—30.7 u/l | 71.2+—3.8 u/l | 175.6+—36.8 mg/dl | 92.6+—38.8 mg/dl | 7.3+—2.2 k/ul | no differences among or within each groups
